We go through 33 molecules from the RepoRT retention time repository (doi:10.1016/j.scitotenv.2015.08.078).

The structures appear in SMILES notation.

This series can be described thus: RP, Waters ACQUITY UPLC BEH C18, 100 × 2.1 mm, 1.7 µm, 0.3 mL/min, estimated dead time 0.73 min; A: water + 0.1% formic acid, pH 3; B: methanol + 0.1% formic acid, pH 3; gradient (min/%B) 0/10 14/90 16/90 18/10. Particulars: stereoisomer not certain.
Take `CCN(CC)C(=O)SCc1ccccc1Cl` [Orbencarb]: the LC retention time is 11.9 min.

`CN(C)CCOC(c1ccccc1)c1ccccc1` [Diphenhydramine]: the LC retention time was 7.71 min.

For `CC(N)Cc1ccccc1` (stereo not drawn) [Amphetamine], the LC retention time is 3.59 min.

For `CCc1cccc(CC)c1N(COC)C(=O)CCl` [Alachlor], the LC retention time is 11.7 min.

With `Nc1ccc(S(=O)(=O)NC(=O)c2ccccc2)cc1` [Sulfabenzamide], the LC retention time is 3 min.

Regarding `CN(C(=O)COc1nc2ccccc2s1)c1ccccc1` [Mefenacet], the LC retention time is 10.7 min.

For `CCCOCC(=Nc1ccc(Cl)cc1C(F)(F)F)n1ccnc1` [Triflumizole], the LC retention time was 12.7 min.

In the case of `CC1=C(C(=O)Nc2ccccc2)S(=O)(=O)CCO1` [Oxycarboxin], the LC retention time was 5.41 min.

Turning to `CCOP(=S)(Oc1ccc([N+](=O)[O-])cc1)c1ccccc1` (stereo not drawn) [EPN], the LC retention time was 12.2 min.

For `O=C(NC(=O)c1c(F)cccc1F)Nc1ccc(OC(F)(F)C(F)OC(F)(F)F)c(Cl)c1` (stereo not drawn) [Novaluron], the LC retention time is 12.6 min.

Take `CC1(C)SC2C(NC(=O)C(N)c3ccc(O)cc3)C(=O)N2C1C(=O)O` (stereo not drawn) [Amoxicillin]: the LC retention time was 4.61 min.

As for `CCNc1nc(NCC)[nH]c(=O)n1` [2-hydroxysimazine], the LC retention time is 3.33 min.

For `CCOP(=S)(OCC)OP(=S)(OCC)OCC` [Sulfotep], the LC retention time was 11.5 min.

Regarding `CCOP(=S)(NC(C)C)Oc1ccccc1C(=O)OC(C)C` (stereo not drawn) [Isofenphos], the LC retention time was 12.1 min.

Take `CCOc1ccc(NC(=O)OC(C)C)cc1OCC` [Diethofencarb]: the LC retention time was 9.88 min.

`CC1CCCCC1NC(=O)Nc1ccccc1` (stereo not drawn) [Siduron A]: the LC retention time was 9.88 min.

As to `CCCCC(CC)COC(=O)c1ccccc1C(=O)OCC(CC)CCCC` (stereo not drawn) [Bis-(2-ethylhexyl) phthalate], the LC retention time is 15.3 min.

For the molecule `CN(CC=CC#CC(C)(C)C)Cc1cccc2ccccc12` [Terbinafine], the LC retention time was 13.7 min.

For `CCS(=O)(=O)c1nc2ccccn2c1S(=O)(=O)NC(=O)Nc1nc(OC)cc(OC)n1` [Sulfosulfuron], the LC retention time was 6.42 min.

As for `CCCSC(=O)N(CCC)CCC` [Vernolat], the LC retention time was 12.2 min.

Consider `CCCOC(=O)NCCCN(C)C` [Propamocarb], for which the LC retention time was 2.28 min.

On to `CC(C)OC(=O)C(C)N(C(=O)c1ccccc1)c1ccc(F)c(Cl)c1` (stereo not drawn) [Flamprop-isopropyl], for which the LC retention time is 11.7 min.

Regarding `COC(=O)C1C(OC(=O)c2ccccc2)CC2CCC1N2C` (stereo not drawn) [Cocaine], the LC retention time is 5.49 min.

Take `O=C(NC(=O)c1c(F)cccc1F)Nc1cc(Cl)c(OC(F)(F)C(F)C(F)(F)F)cc1Cl` (stereo not drawn) [Lufenuron]: the LC retention time is 9.67 min.

Consider `COc1ccc(C(CN(C)C)C2(O)CCCCC2)cc1` (stereo not drawn) [Venlafaxine], for which the LC retention time was 7.23 min.

As for `CNC(=N[N+](=O)[O-])NCc1cnc(Cl)s1` [Clothianidin], the LC retention time is 4.13 min.

As to `CC1(C)CON(Cc2ccccc2Cl)C1=O` [Clomazone], the LC retention time is 9.54 min.

In the case of `CCCOCCN(C(=O)CCl)c1c(CC)cccc1CC` [Pretilachlor], the LC retention time is 12.5 min.

Regarding `CCCCN(CC)C(=O)SCCC` [Pebulate (Tillam)], the LC retention time was 12.1 min.

As to `COc1ccc(NS(=O)(=O)c2ccc(N)cc2)nn1` [Sulfamethoxypyridazine], the LC retention time is 3.65 min.

`CCOP(=S)(OCC)SCSP(=S)(OCC)OCC` [Ethion]: the LC retention time is 13.4 min.

Turning to `COCCOc1ccccc1S(=O)(=O)NC(=O)Nc1nc(OC)nc(OC)n1` [Cinosulfuron], the LC retention time was 6.25 min.

Turning to `CN(Cc1cc(Br)cc(Br)c1N)C1CCCCC1` [Bromhexine], the LC retention time was 14.1 min.
